Tests used:
[1] = test system: competition with testosterone at the target tissue; assay: study in castrate rats receiving testosterone propionate: prostatic weight; type: in vivo, male Sprague-Dawley rats (castrated); settings: estryne 12mg/kg i.p. and testosterone propionate 0.3mg daily for seven days; castrated 10 days prior
Method: To determine if the estryne competes with testosterone at the target tissue rats were orchiectomized under ether anesthesia via the scrotal route 10 days prior to treatment. Testosterone propionate 0.3 mg (0.2 ml sesame oil) was administered daily for 7 days subcutaneously. Estryne 12 mg/kg (0.2 ml propylene glycol) was given daily for 7 days interperitioneally. Control groups received either testosterone propionate (0.3 mg) or carrier oil daily for 7 days. The animals were sacrificed on the eighth day and the organs were weighed.
Animals castrated 10 days prior to treatment received both estryne (12mg/kg weight) and testosterone propionate (0.3mg) daily for seven days.

[2] = test system: androgen biosynthesis stimulated by human chorionic gonadotropin; assay: study in hypophysectomized rats stimulated with human chorionic gonadotropin: ventral prostate weight; type: in vivo, hypophysectomized male Sprague-Dawley rats
Method: In order to assess the action of the estryne in the presence of exogenous stimulation of androgen synthesis, hypophysectomized male rats received estryne 3.0 mg (0.2 ml sesame oil) sc and/or human chorionic gonadotropin 2 units and 4 units (0.9% saline) sc daily for 7 days. Sacrifice and weighing of the organs was performed on the eighth day.
The wet weight of the ventral prostate was decreased (20-25%) in hypophysectomized animal receiving estryne (12mg/kg body weight) and HGG (2 units) as compared to controls receiving just HGG (2 units).

immature uterus = assay: study of estrogenic activity (uterine weight of immature mice); settings: 100 μg total dose over three days, sc
Method: The animals were housed in a temperature controlled room under a constant lighting schedule and maintained on a diet of Charles River Rat Formula and water ad libitum. The diet of the hypophy-sectomized animals was supplemented with organges.
On the fourth day the uteri were removed and weighed.
Thus, immature female mice received estryne at doses up to a maximum of 100 μg total dose over three days, and the wet weight of the uteri were determined.

C[C@]12CC[C@@H]3C(=O)CCC(=O)CC#CC[C@H]3[C@@H]1CCC2=O [Compound 1, 5,10-secoestr-5-yne-3,10,17-trione]
depression of prostatic weight [1]: No significant depression of prostatic weight
decrease in wet weight of the ventral prostate ([2]; estryne 12mg/kg body weight and HCG 2 units, vs controls receiving HCG 2 units only, 7 days): 20-25%
effect on ventral prostate weight at higher doses of HCG ([2]; higher doses of HCG, in words): less pronounced
stimulation of the immature uterus (immature uterus): no stimulation of the immature uterus
